{"source": "patent US10137171B2", "about": "“Methods of treatment using a pentapeptide derived from the C-Terminus of Glucagon-Like Peptide 1 (GLP-1)” (The General Hospital Corporation, priority 2011, dated 2018)", "key": {"[1]": {"system": "diet-induced obese mice", "assay": "Liver triglyceride content", "assay_type": "in vivo, mouse", "protocol": "FIGS. 6A-B are bar graphs showing that infusions of GLP-1(32-36)amide in mice prevent the accumulation of triglyceride in the livers of mice fed a very high-diet (VHFD). Triglyceride contents of samples of livers of mice fed a high-fat diet (VHFD) for 32 weeks (age 38 weeks). 6A. Triglyceride levels of pentapeptide-infused obese mice as a percent of the vehicle-infused control mice set at 100%. *p<0.005. 6B. Triglyceride content levels of 60.5+/−12.1 mg/mg protein. Infusion of the pentapeptide lowered the triglyceride content by 65% to 21.1+/−5.6 mg/mg protein, indistinguishable from the values in the livers of lean mice fed low-fat chow (21.6+/−7 mg/mg protein). Data from diet-induced obese mice infused with the nonapeptide, GLP-1(28-36)amide for 16 weeks are also shown. Values are represented as % of vehicle control infused mice fed a high-fat diet (VHFD). *p<0.005, peptide vs. vehicle. N=6 mice per group. Values are means+/−SEMs.\nRepresentative samples (2-3 gms) of livers were obtained and quick frozen on solid CO2 at the time of sacrifice and necropsy. The samples were subsequently homogenized and triglycerides were extracted and measured using a colorimetric enzymatic assay (Serum Triglyceride Determination kit, Sigma)."}, "[2]": {"system": "diet-induced obese mice", "assay": "Plasma circulating glycerol and triglyceride (FIG. 6C)", "assay_type": "in vivo, mouse", "details": "16 weeks continuous infusion, 60% fat diet 24 weeks (FIG. 6C)", "source_text": "FIG. 6C is a table showing continuous infusion of GLP-1(32-36)amide for 16-weeks improves plasma circulating levels of glycerol and triglyceride in mice fed on a 60% fat diet (VHFD) for 24-weeks. *p<0.02, peptide vs. vehicle; **p<0.008 peptide vs. vehicle."}, "[3]": {"system": "H4IIe hepatoma cells", "assay": "ROS formation assay (H4IIe hepatoma cells)", "assay_type": "cell-based", "details": "0.2 mM palmitate 24 hr, 100 pM peptide (FIG. 9B)", "protocol": "FIG. 9B is a bar graph showing inhibition of the production of ROS in H4IIe hepatoma cells. BSA n=14. palmitate n=13. 32-36/palmitate n=12. *p<0.005 palmitate vs BSA, # p<0.03 palmitate vs GLP-1(32-36)a/palmitate\nH4IIe cells were seeded in 12-well plates at a density of 1×10^4/well and incubated overnight in media containing 5.0 mM glucose. Media was then supplemented with 0.20 mM palmitate in BSA, with and without 100 pM GLP-1(32-36)amide and incubated for an additional 24 h. Intracellular ROS was measured by 5-(and 6)-carboxy-2′,7′-dichlorohydro-fluorescein diacetate (CM-H2DCFDA) (Molecular Probes) as follows. Cells were washed twice in HBSS (Hanks' Balance Salt Solution) and incubated with 10 uM CM-H2DCFDA for 45 minutes. The media were removed and cells were lysed. ROS was measured in the cell lysates using a spectrofluorometer (485 nm/535 nm). Data were normalized to values obtained from the cells treated with palmitate. BSA n=14. Palmitate n=13. 32-36/Palmitate n=12."}, "[4]": {"system": "diet-induced obese mice", "assay": "Dual energy X-ray absorptiometry (DXA) of lean, fat and total body mass", "assay_type": "in vivo, mouse", "source_text": "FIGS. 2A-D are bar graphs showing the results of determinations of lean, fat, and total body mass by dual X-ray absorptiometry (DXA) of mice receiving continuous infusions of the pentapeptide […] or control vehicle alone for 16 weeks. At the time of the study the mice were 39 weeks of age and on the very high fat diet for 33 weeks. 2A. Fat versus lean mass. The fat mass is 40% less in the pentapeptide infused compared to the control vehicle infused mice. *P<0.0008. […] 2B. Total body mass (lean+fat) differences in peptide infused versus vehicle control infused obese mice. *P<0.002. 2C. Fat mass expressed as the fraction of fat mass in peptide infused mice versus vehicle control infused obese mice. *P<0.0008. 2D. Fat mass expressed as the percentage of body weight, peptide-infused versus vehicle control-infused obese mice. *P<0.001. N=6 mice per group. Values are means+/−SEMs.\nMice were anesthetized with 0.02 ml of a 2% tribromoethanol solution per gram of body weight and scanned with a dual X-ray apparatus (Lunar Piximus, GE Medical Systems, Wauwatosa, Wis.). Total, fat, and lean body mass was quantitatively determined."}, "[5]": {"system": "insulin-resistant isolated mouse hepatocytes", "assay": "Glucose production assay in isolated hepatocytes", "assay_type": "cell-based", "details": "stimulated by cAMP/dexamethasone/lactate; basal glucose production not suppressed", "source_text": "FIG. 8 is a bar graph showing suppression of glucose production by the pentapeptide GLP-1(32-36)amide (LVKGRamide (SEQ ID NO:1)) in insulin-resistant hepatocytes. Mice (male, C57bl/6) from 12-19 weeks of age were fasted overnight (16 hrs) and primary hepatocytes were isolated using a collagen and perfusion gradient purification. Cells were first seeded using a Dulbecco's modified Eagle's medium (DMEM) supplemented with 10% FBS, 1 g/L glucose, 2 mmol/1 sodium pyruvate, 1 micromol/L dexamethasone, and 0.1 micromol/L insulin, and later maintained in DMEM with 0.2% BSA, 1 g/L glucose, 0.1 micromol/L dexamethasone, and lnmol/L insulin. […] The readings were then normalized to total protein content determined from whole-cell lysates. […]\nPrimary hepatocytes (2×10^5 cells per well in twelve-well plates) were pre-treated with GLP-1(32-36)amide for 1 hour followed by the stimulation of insulin resistance by the addition of cAMP (10 microM)/dexamethasone ([…])/sodium lactate (2 mM) in glucose-free DMEM without phenol red. […] The readings were then normalized to total protein content determined from whole-cell lysates."}, "[6]": {"details": "after 16 weeks infusion, VHFD mice (FIG. 2A)"}}, "note": "Entries after “also recorded” stand apart in the source; their conditions may differ. Where no end group is shown, it is not given here."}
{"substance": "LVKGRamide (LVKGR-NH2) [GLP-1(32-36)amide, pentapeptide derived from the C-terminus of the glucoincretin hormone GLP-1]", "values": [{"measurement": "liver triglyceride as percent of vehicle control set at 100%", "setting": "[1]; VHFD mice (FIG. 6A)", "result": 35, "unit": "%"}, {"measurement": "liver triglyceride content decrease compared to vehicle", "setting": "[1]; VHFD mice, pentapeptide infusion (FIG. 6A, 6B)", "result": 65, "unit": "%"}, {"measurement": "liver triglyceride content", "setting": "[1]; VHFD mice, vehicle 60.5+/-12.1, lean low-fat diet mice 21.6+/-7 (FIG. 6B)", "result": "21.1+/−5.6 mg/mg protein"}, {"measurement": "plasma circulating levels of glycerol and triglyceride", "setting": "[2]", "result": "improves; also recorded: lowered"}, {"measurement": "ROS production", "setting": "[3]", "result": "nearly completely normalizes"}, {"measurement": "ROS production", "setting": "[3]; listed as GLP-1(32-36)a", "result": "inhibition"}, {"measurement": "relative (%) fat mass compared to vehicle-treated mice (DXA)", "setting": "[4]; after 16 weeks infusion (FIG. 2C)", "result": "decreased"}, {"measurement": "fat mass reduction compared to vehicle control (DXA)", "setting": "[4]; [6]", "result": 40, "unit": "%"}, {"measurement": "lean mass change compared to vehicle control (DXA)", "setting": "[4]; [6]", "result": "no significant difference"}, {"measurement": "lean mass change compared to vehicle control (DXA)", "setting": "[4]; after 16 weeks infusion, VHFD mice (FIG. 2A), listed as pentapeptide", "result": "no significant changes; also recorded: no significant difference"}, {"measurement": "total body mass (body weight) (DXA)", "setting": "[4]; after 16 weeks infusion, vs vehicle (FIG. 2B)", "result": "decreased"}, {"measurement": "ratio of fat mass to body weight (DXA)", "setting": "[4]; after 16 weeks infusion, vs vehicle (FIG. 2D)", "result": "decreased"}, {"measurement": "glucose production (formation)", "setting": "[5]", "result": "suppression"}]}
